Results from US20090197800A1, “Insulin Receptor Binding Peptides with Non-Insulin Gene Activation Profiles and Uses Thereof” (Novo Nordisk A/S, priority 2004, published 2009).
Ends that are not written are not given here.

Tests used:
human SGBS adipocytes = test: cDNA microarray analysis of total RNA from SGBS adipocytes treated with S597 or human insulin; type: cell-based; conditions: 30 nM, 18 hours, vs vehicle
Procedure: To compare the transcriptional effects of human insulin (HI) and an exemplary IRBP, IRBP S597, cDNA microarray analyses were performed on total RNA from human SGBS adipocytes treated with S597 (30 nM) or human insulin (30 nM) for 18 hours. The microarray hybridizations were carried out as dual color (Cy3/Cy5) hybridizations comparing vehicle treatments to insulin or S597 treatments. Three individual RNA samples from vehicle, S597, and insulin treated cells were compared, and all hybridizations were repeated with reversed dye combination (e.g. vehicle (Cy3) vs. S597 (Cy5) repeated as vehicle (Cy5) vs. S597 (Cy3)). The specific steps employed in this experimental analysis of the effects of HI versus IRBP S597 are described in the following paragraphs.
(§1) A human preadipocyte cell strain derived from subcutaneous adipose tissue of an infant with Simpson-Golabi-Behmel syndrome (SGBS) was plated out in 6 well plates and grown to confluence in DMEM/F12 medium (Gibco) containing 1% biotin, 1% panthothenic acid, 1% penicillin (10000 U)/streptomycin (10000 U), and 10% Fetal bovine serum (Gibco-Invitrogen, Carlsbad Calif. (USA)—“Gibco”). Differentiation of SGBS preadipocytes into adipocytes was induced by adding DMEM/F12 medium (Gibco) containing 1% biotin, 1% panthothenic acid, 1% penicillin (10,000 U)/streptomycin (10,000 U), 100 nM cortisol, […] triiodothyronine, 20 nM insulin, 250 nM dexamethasone (first 6 days), 500 μM IBMX (first 6 days), 2 μM rosiglitazone (first 3 days) and letting cells differentiate for 14 days.
(§2) Before stimulation with insulin and IRBP S597 the differentiated adipocytes were cultured in DMEM/F12 medium (Gibco) containing 1% biotin, 1% panthothenic acid, 1% penicillin (10,000 U)/streptomycin (10,000 U), 100 nM cortisol, and […] triiodothyronine for 2 days. Insulin and S597 (1, 3, 10, 30, 100 nM) were separately added to cells in DMEM/F12 medium (Gibco) containing 1% biotin, 1% panthothenic acid, 1% penicillin (10,000 U)/streptomycin (10,000 U), 100 nM cortisol, 200 pM triiodothyronine, and 0.1% BSA. Following stimulation for 18 h (18 hours), the cells were washed twice in PBS and 1.3 ml SV RNA-lysis buffer (Promega, Madison, Wis.) was added to each well.
(§3) Total RNA was isolated and DNase treated using SV96 total RNA isolation system (Promega, Madison, Wis.) following manufacturer's instructions.
Incyte Easy-To-Spot™ PCR-products (ETS1220 comprising ˜9000 human clones) (Amersham Biosciences) dissolved in 50% DMSO were spotted on to Corning Ultra Gaps slides (Corning Inc., Corning, N.Y.) at 55% relative humidity using the Molecular Dynamics Gen. III microarray spotter (Amersham Biosciences, Buckinghamshire, UK). All slides were baked at 80° C. for 4 h. Approximately 250 ng of total RNA from cells treated with vehicle, human insulin (30 nM) and S597 (30 nM) were used for synthesis of complementary RNA (amplified RNA (aRNA)) using Amino-allyl MessageAmp™ aRNA kit (Ambion, Austin, Tex.). Amino-allyl cDNA was synthesized from 1.5 μg of each RNA-amplification. The aRNA was incubated with random primer at 70° C. for 10 min. and subsequently chilled on ice for 30 sec. The primer annealed RNA was incubated with reaction mixture (1× Superscript II buffer (Life Technologies, Taastrup, Denmark), 10 mM DTT, 200 μM dGAT(−TP) 100 μM dCTP, 100 μM Cy-3/Cy-5-dCTP (Amersham Biosciences), and 200 units of Superscript II reverse transcriptase (Life Technologies, Taastrup, Denmark) at 42° C. for 2 h in a final volume of 20 μl. The RNA template was removed by alkaline denaturation (incubation with 2 μl 2.5 M NaOH at 37° C. for 15 min.). Amino-allyl labeled probes were purified using a Qiagen PCR purification kit (Qiagen). The amino-allyl cDNA was resuspended in 0.1 M NaHCO3 pH 9.0 and coupled to Cy3/Cy5 NHS-ester (Amersham Biosciences) for 1 h at RT in the dark. Unreacted ester groups were quenched by addition of hydroxylamine. Cy3- and Cy5-labeled cDNA was purified using Qiagen PCR purification kit (Qiagen). […]

SGBS adipocytes = test: quantitative RT-PCR of cholesterol biosynthesis genes in SGBS adipocytes; type: cell-based, human; conditions: 18 h; for expression level of HMG-CoA synthase 1 (direction of regulation) / expression level of mevalonate (diphospho) decarboxylase (direction of regulation): quantitative RT-PCR, dose dependent, SGBS adipocytes, FIG. 2
Procedure: as §1, §2, §3
(§4) cDNA was prepared from 100 ng of total RNA from each of the treatments (n=3) using random primers and TaqMan® Reverse (Applied Biosystems, Foster City, Calif. (USA)).
(§5) Transcription reagents were used/applied according to the manufacturer's instructions. Quantitative PCR was performed on each of the cDNA samples (10-fold dilutions of cDNA) using TaqMan® PCR core reagents (Applied Biosystems) on an ABI PRISM® 7000 Sequence Detection System (Applied Biosystems). Primers and FAM-labeled-probes for human and rat HMG-CoA reductase (HMGCR), mevalonate (diphospho) decarboxylase (MVD), HMG-CoA synthase 1 (HMGCS1), 18S rRNA, rat fatty acid synthase (FAS), and rat glucose-6-phosphate catalytic subunit (G6PC) were ordered as Assays-on-Demand (Applied Biosystems).
(§6) Probe sequences for these assays were as follows: HMGCR (human AC-[…] (assay Hs00168352_m1) (SEQ ID NO: 34), rat GCAC-[…] (assay Rn00565598_m1) (SEQ ID NO: 35)), MVD (human […] (assay Hs00159403_m1) (SEQ ID NO: 36), rat […] (assay Rn00579216_m1) (SEQ ID NO: 37)), HMGCS1 (human […] (assay Hs00266810_m1) (SEQ ID NO: 38), rat […] (assay Rn00568579_m1) (SEQ ID NO: 39)), 18S rRNA ([…]; assay HS99999901_s1) (SEQ ID NO: 40), FAS (rat […] (assay Rn00569117_m1) (SEQ ID NO: 41)), and G6PC (rat […] (assay Rn00565347_m1) (SEQ ID NO: 42)). Data were analyzed using ABI Prism 7000 SDS software (version 1.0; Applied Biosystems), and expression levels for HMGCR, MVD, HMGCS1, FAS, and were normalized to the 18S rRNA levels.

primary rat hepatocytes = test: quantitative RT-PCR of mRNA expression in primary rat hepatocytes; type: cell-based; conditions: 18 h; for effect on HMGCR mRNA level / effect on HMGCS1 mRNA level / effect on MVD mRNA level: 5 doses (0.1, 0.3, 1, 10, 100 nM), FIG. 3; for mRNA expression of fatty acid synthase (direction of regulation) / mRNA expression of glucose-6-phosphate catalytic subunit (direction of regulation): FIG. 4
Procedure: Male Wistar rats (˜200 g) were anaesthetized with a freshly prepared mixture (1:1) of Hyp-norn (0.05 mg/ml fentalyl/2.5 mg/ml fluabizone) and Dormicum (1.25 mg/ml midazolam) administered subcutaneously (1 ml/kg). Hepatocytes were isolated from rats fed ad libitum by a two-step perfusion technique essentially as described by Seglen, Biochem. J. (1999) 342 (545-550). Cell viability, assessed by Trypan Blue exclusion, was consistently greater than 80%. Cells were plated on to collagen-coated six-well plates in basal medium (Medium 199, 5.5 mM glucose supplemented 100 nM decadron, 1% penicillin (10,000 U)/streptomycin (10,000 U), and 1 nM insulin) with 4% fetal calf serum at a cell density of 1.2*10^6 cells/well. The medium was replaced 1 h after initial plating in order to remove dead cells. […] Following stimulation for 18 h, the cells were washed twice in PBS and 1.3 ml SV RNA-lysis buffer (Promega, Madison, Wis.) were added to each well.
as §3, §4, §5, §6

[1] = quantitative RT-PCR, 1, 3, 10, 30, 100 nM, normalized to 18S, FIG. 1

Substance | HMG-CoA reductase (HMGCR) gene downregulation (human SGBS adipocytes) | HMG-CoA synthase 1 (HMGCS1) gene downregulation (human SGBS adipocytes) | mevalonate (diphospho) decarboxylase (MVD) gene downregulation (human SGBS adipocytes) | dose dependant downregulation of HMG-CoA reductase mRNA (SGBS adipocytes; [1]) | expression level of HMG-CoA synthase 1 (direction of regulation) (SGBS adipocytes) | expression level of mevalonate (diphospho) decarboxylase (direction of regulation) (SGBS adipocytes) | effect on HMGCR mRNA level (primary rat hepatocytes) | effect on HMGCS1 mRNA level (primary rat hepatocytes) | effect on MVD mRNA level (primary rat hepatocytes) | mRNA expression of fatty acid synthase (direction of regulation) (primary rat hepatocytes) | mRNA expression of glucose-6-phosphate catalytic subunit (direction of regulation) (primary rat hepatocytes) | HMG-CoA reductase (HMGCR) gene upregulation (human SGBS adipocytes) | HMG-CoA synthase 1 (HMGCS1) gene upregulation (human SGBS adipocytes) | mevalonate (diphospho) decarboxylase (MVD) gene upregulation (human SGBS adipocytes) | dose dependant upregulation of HMG-CoA reductase mRNA (SGBS adipocytes; [1])
Ac-SLEEEWAQIECEVYGRGCPSESFYDWFERQL (cysteine pairing not given here) [S597] | 2.1 fold | 1.4 fold | 2.5 fold | ~2 fold down | downregulated | downregulated | no significant changes | no significant changes | no significant changes | upregulation | downregulation | – | – | – | –
human insulin | – | – | – | – | upregulated | upregulated | clear upregulating effect | clear upregulating effect | clear upregulating effect | upregulation | downregulation | 2.3 fold | 2.0 fold | 2.1 fold | ~3 fold up
